Measured values as given in ChEMBL document CHEMBL5113444, “Synthesis of biotinylated-LPG as a chemical biology tool enabling discovery of ALCAT1 modulators” (Bioorg Med Chem Lett, 2022).
Activity calls are given as the source filed them. No cut-off for these calls is given here.

What was measured:
[1] = target: T1, Lysocardiolipin acyltransferase 1 (Homo sapiens) (UniProt Q6UWP7); experiment: Substrate activity at recombinant human ALCAT1 expressed in HEK293 cells using oleoyl-CoA as substrate assessed as biotinylated (BTN)-di-oleoyl LPG product formation by Rapidfire-triple quad mass spectrometry analysis; conditions: filed as modulator, time <= 64.0 min, TDE = time-dependent effect
T1 sequence (whole entry): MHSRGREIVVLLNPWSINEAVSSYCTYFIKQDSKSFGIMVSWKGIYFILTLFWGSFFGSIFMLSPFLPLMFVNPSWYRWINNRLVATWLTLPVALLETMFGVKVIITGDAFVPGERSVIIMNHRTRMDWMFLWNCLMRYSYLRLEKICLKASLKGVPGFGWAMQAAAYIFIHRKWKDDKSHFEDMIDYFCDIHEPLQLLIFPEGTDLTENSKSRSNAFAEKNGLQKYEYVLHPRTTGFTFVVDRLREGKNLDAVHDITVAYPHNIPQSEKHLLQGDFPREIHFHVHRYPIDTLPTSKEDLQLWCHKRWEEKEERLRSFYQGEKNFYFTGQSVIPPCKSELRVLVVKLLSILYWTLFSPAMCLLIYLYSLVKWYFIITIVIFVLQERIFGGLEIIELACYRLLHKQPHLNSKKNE

[2] = target: T1, Lysocardiolipin acyltransferase 1 (Homo sapiens); experiment: Substrate activity at recombinant human ALCAT1 expressed in HEK293 cells using oleoyl-CoA as substrate assessed as acylated product formation by Rapidfire-triple quad mass spectrometry analysis; conditions: filed as modulator

| Activity [1] | Activity [2] | SMILES |
| --- | --- | --- |
| Tde | – | O=C1N[C@H]2[C@H](CS[C@H]2CCCCC(=O)OCCCCCCC/C=C\CCCCCCCC(=O)OC[C@@H](O)COP(=O)(O)OCC(O)CO)N1 (some centres not stated) |
| – | Active | CCCCCCCCCCCCCCCC(=O)OC[C@H](O)COP(=O)(O)OC[C@H](O)CO |
